{
  "source": "PubChem BioAssay (NCI)",
  "experiment_in_all_cases": "NCI-60 cell line screen, 48 h",
  "key": {"[1]": {"test_system": "IGROV1 ovarian"}, "[2]": {"test_system": "NCI-H23 lung"}, "[3]": {"test_system": "K-562 leukemia"}, "[4]": {"test_system": "MDA-MB-435"}, "[5]": {"test_system": "PC-3 prostate"}, "[6]": {"test_system": "MDA-MB-468 breast"}, "[7]": {"test_system": "HT29 colon"}, "[8]": {"test_system": "HS 578T breast"}, "[9]": {"test_system": "SF-268 CNS"}, "[10]": {"test_system": "CAKI-1 renal"}, "[11]": {"test_system": "MALME-3M melanoma"}, "[12]": {"test_system": "786-0 renal"}, "[13]": {"test_system": "UACC-62 melanoma"}, "[14]": {"test_system": "SK-MEL-5 melanoma"}, "[15]": {"test_system": "A549 NSCLC"}, "[16]": {"test_system": "SNB-75 CNS"}, "[17]": {"test_system": "SF-539 CNS"}, "[18]": {"test_system": "MDA-MB-231 breast"}, "[19]": {"test_system": "COLO 205 colon"}, "[20]": {"test_system": "KM12 colon"}, "[21]": {"test_system": "HL-60(TB) leukemia"}, "[22]": {"test_system": "TK-10 renal"}, "[23]": {"test_system": "OVCAR-3 ovarian"}, "[24]": {"test_system": "HCC-2998 colon"}, "[25]": {"test_system": "UO-31 renal"}, "[26]": {"test_system": "NCI-H226 lung"}, "[27]": {"test_system": "T-47D breast"}, "[28]": {"test_system": "HCT-15 colon"}, "[29]": {"test_system": "HOP-62 NSCLC"}},
  "note": "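Tested at 5 concentrations; 48 h exposure; 96-well plates; endpoints linearly interpolated, else capped at highest concentration. GI50 marks 50% less growth. TGI marks complete inhibition of growth.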",
  "data": [
    {"compound": "CCCCCc1ccc(S(=O)(=O)Nc2cc(-c3csc(N(C)C(C)=O)n3)ccc2N2CCN(C)CC2)cc1", "values": [
      {"measurement": "TGI", "setting": "[1]", "value": "> 35.5", "unit": "µM"},
      {"measurement": "GI50", "setting": "[2]", "value": 7.49, "unit": "µM"},
      {"measurement": "TGI", "setting": "[2]", "value": 31.7, "unit": "µM"},
      {"measurement": "GI50", "setting": "[3]", "value": 1.01, "unit": "µM"},
      {"measurement": "TGI", "setting": "[3]", "value": "> 35.5", "unit": "µM"},
      {"measurement": "GI50", "setting": "[4]", "value": 2.02, "unit": "µM"},
      {"measurement": "TGI", "setting": "[4]", "value": "> 35.5", "unit": "µM"},
      {"measurement": "GI50", "setting": "[5]", "value": 2.2, "unit": "µM"},
      {"measurement": "TGI", "setting": "[5]", "value": "> 35.5", "unit": "µM"},
      {"measurement": "GI50", "setting": "[6]", "value": 1.62, "unit": "µM"},
      {"measurement": "TGI", "setting": "[6]", "value": 7.5, "unit": "µM"},
      {"measurement": "GI50", "setting": "[7]", "value": 1.13, "unit": "µM"},
      {"measurement": "TGI", "setting": "[7]", "value": 3.66, "unit": "µM"},
      {"measurement": "GI50", "setting": "[8]", "value": 5.25, "unit": "µM"},
      {"measurement": "TGI", "setting": "[8]", "value": 35.1, "unit": "µM"},
      {"measurement": "GI50", "setting": "[9]", "value": 7.01, "unit": "µM"},
      {"measurement": "TGI", "setting": "[9]", "value": "> 35.5", "unit": "µM"},
      {"measurement": "GI50", "setting": "[10]", "value": 1.86, "unit": "µM"},
      {"measurement": "TGI", "setting": "[10]", "value": 13.5, "unit": "µM"},
      {"measurement": "GI50", "setting": "[11]", "value": 5.26, "unit": "µM"},
      {"measurement": "TGI", "setting": "[11]", "value": 19.7, "unit": "µM"},
      {"measurement": "GI50", "setting": "[12]", "value": 2.29, "unit": "µM"},
      {"measurement": "TGI", "setting": "[12]", "value": 30.8, "unit": "µM"},
      {"measurement": "GI50", "setting": "[13]", "value": 6.2, "unit": "µM"},
      {"measurement": "TGI", "setting": "[13]", "value": 12.6, "unit": "µM"},
      {"measurement": "GI50", "setting": "[14]", "value": 4.47, "unit": "µM"},
      {"measurement": "TGI", "setting": "[14]", "value": 16.9, "unit": "µM"},
      {"measurement": "GI50", "setting": "[15]", "value": 3.34, "unit": "µM"},
      {"measurement": "TGI", "setting": "[15]", "value": "> 35.5", "unit": "µM"},
      {"measurement": "GI50", "setting": "[16]", "value": 3.6, "unit": "µM"},
      {"measurement": "TGI", "setting": "[16]", "value": 15, "unit": "µM"},
      {"measurement": "GI50", "setting": "[17]", "value": 1.21, "unit": "µM"},
      {"measurement": "TGI", "setting": "[17]", "value": 4.59, "unit": "µM"},
      {"measurement": "GI50", "setting": "[18]", "value": 1.81, "unit": "µM"},
      {"measurement": "TGI", "setting": "[18]", "value": 8.34, "unit": "µM"},
      {"measurement": "GI50", "setting": "[19]", "value": 0.626, "unit": "µM"},
      {"measurement": "TGI", "setting": "[19]", "value": 1.27, "unit": "µM"},
      {"measurement": "GI50", "setting": "[20]", "value": 3.61, "unit": "µM"},
      {"measurement": "TGI", "setting": "[20]", "value": "> 35.5", "unit": "µM"},
      {"measurement": "GI50", "setting": "[21]", "value": 0.807, "unit": "µM"},
      {"measurement": "TGI", "setting": "[21]", "value": 2.4, "unit": "µM"},
      {"measurement": "GI50", "setting": "[22]", "value": 7.43, "unit": "µM"},
      {"measurement": "TGI", "setting": "[22]", "value": 19.9, "unit": "µM"},
      {"measurement": "GI50", "setting": "[23]", "value": 1.12, "unit": "µM"},
      {"measurement": "TGI", "setting": "[23]", "value": 12.8, "unit": "µM"},
      {"measurement": "GI50", "setting": "[24]", "value": 1.25, "unit": "µM"},
      {"measurement": "TGI", "setting": "[24]", "value": 8.55, "unit": "µM"},
      {"measurement": "GI50", "setting": "[25]", "value": 5.42, "unit": "µM"},
      {"measurement": "TGI", "setting": "[25]", "value": "> 35.5", "unit": "µM"},
      {"measurement": "GI50", "setting": "[26]", "value": 8.43, "unit": "µM"},
      {"measurement": "TGI", "setting": "[26]", "value": 33.2, "unit": "µM"},
      {"measurement": "GI50", "setting": "[27]", "value": 2.95, "unit": "µM"},
      {"measurement": "TGI", "setting": "[27]", "value": "> 35.5", "unit": "µM"},
      {"measurement": "GI50", "setting": "[28]", "value": 1.04, "unit": "µM"},
      {"measurement": "TGI", "setting": "[28]", "value": "> 35.5", "unit": "µM"},
      {"measurement": "GI50", "setting": "[29]", "value": 7.85, "unit": "µM"},
      {"measurement": "TGI", "setting": "[29]", "value": "> 35.5", "unit": "µM"}
    ]}
  ]
}
